Tests used:
U87R cells = test: Subtractive/selective biopanning of Ph.D.-12 phage display library against U87R cells, sequencing of subclones; design: species or system human; settings: given as n/100
Method: The present inventors have earlier described an in vivo selection for a population of human glioma cells that were highly invasive (U87R). In order to isolate peptides that could bind specifically to these highly invasive glioma cells, a biopanning experiment using a combinatorial phage display library was employed. Initially subtractive biopanning was performed with the U87 cells that were non-invasive (U87T) followed by selective biopanning with the U87R cells to isolate a library of phage (FIG. 1A) that were confirmed to preferentially interact with U87R cells by whole-cell ELISA (FIG. 1B).
Biopanning was performed as described in [61]. Subtraction cells (e.g. U87T) were released from tissue culture plastic with Puck's EDTA, and after washing with PBS, 1×10^7 cells were resuspended in 1% BSA in PBS with 1.5×10^11 pfu of Ph.D.-12 M13 Phage Library (New England Biolabs). The cells and phage were incubated in an eppendorf tube for 1 hour at room temperature with gentle shaking, before pelleting the cells and retaining the supernatant, which was transferred to a fresh tube with another aliquot of subtraction cells. The incubation and transfer of supernatant was performed three times, with the supernatant being transferred to an empty tube on the last round. Selection cells were released from tissue culture plastic with Puck's EDTA (e.g. U87R cells) and washed in PBS. 5×10^6 cells were resuspended in the 3× subtracted supernatant and incubated for 4 hours at 4° C. with slow shaking. The cell pellet was washed 5× in cold 1% BSA/0.1% Tween 20 in PBS five times, changing the tube after each wash. Bound phage were eluted by rocking the cells gently for 10 minutes at 4° C. in 1 mL of 0.2M Glycine-HCl pH 2.2 with 1 mg/mL BSA, and the supernatant was immediately neutralized with 150 μL of 1M Tris-HCl pH 9.1. The final library was amplified as per manufacturer's protocol.

[1] = system: BTIC isolates (BTIC 12, 25, 42, 50); test: Biopanning of phage display library against a mixture of BTIC isolates, sequencing of subclones; settings: BTIC-binding phage subclones; given as n/50 subclones screened
[2] = system: implanted GBM tumor from the BT025 cell line; test: In vivo targeting of fluorescent peptide to implanted BT025 tumor, fluorescence microscopy of brain sections; design: species or system mice; settings: for distribution of fluorescent peptide signal in brain sections: BT025 tumor, intracarotid injection; for localization of peptide conjugate in human GBM tissue in vivo (summary): intravenous administration, BT025 tumor (general statements also cover U87MG tumors)
Method: In the studies shown in FIGS. 13A and 13B, brain tumors were implanted in mice with a patient-derived BTIC cell line BT025 identified as above by its binding to the 7A peptide. After tumor growth from the implanted cells, the tumors were removed, sectioned and stained for microscopic visualization. In the studies shown in FIGS. 14-19, a fluorescent peptide was administered intravenously, either by intracorotid injection or via tail vein into mice having an implanted GBM tumor from the BT025 cell line (FIGS. 14-17) or the U87MG cell line (FIGS. 18 and 19), and after localization of the peptide, the animal were sacrificed and their brain tumors removed for sectioning and visualization by fluorescence microscopy.
The peptide was administered to the mouse via intracarotid injection and allowed to circulate for approximately half an hour to allow clearance of background signal before the mouse was sacrificed and the brain removed for imaging using an Olympus OV100 whole mouse imaging system. By non-magnified inspection, the large outgrowth of the tumor is obvious.
FIGS. 14B and 14C are lower and higher magnification photomicrographs of a thin section taken from the brain in FIG. 14A after it was bisected close to the tumor implantation site and stained for human nuclear antigen (green) and total DNA (blue) to outline the positioning of the cells. The red peptide signal is visible on cells immediately adjacent to the main tumor mass as well as spread diffusely in the surrounding tissue.

[3] = system: U87MG cells transfected with p75^NTR; test: Transwell migration assay, p75NTR-transfected U87MG; assay type: cell-based, human; settings: in vitro invasion assay
Method: The membranes of 8 μm pore sized transwell inserts (Corning Costar) were coated with brain-like matrix (720 μL of 3 mg/mL collagen I (PureCol); 180 μL of 10×DMEM (Invitrogen); 9 uL of 1 mg/mL human plasma fibronectin (Sigma); 9 uL of 1 mg/mL chondroitin sulfate proteoglycans (Chemicon); 16 μL of 0.15 mg/mL laminin (Chemicon)) on both sides, allowed to dry, then plated with 5×10^4 cells in 100 μL media in the upper chamber and 500 μL media in the lower chamber. Inclusion of collagen was essential to see the inhibitory effect of H10 (FIG. S4). 3×10^10 pfu of test phage were added to the upper chambers containing the cells, which were incubated for 4 hours under normal culture conditions. At the end of the incubation, the media was aspirated and the cells were fixed and stained in 1% crystal violet in 95% ethanol for one minute. Transwells were rinsed in PBS, then cells on the upper membrane surfaces were removed with a cotton swab. Cells which had migrated to the undersurface of the membranes were counted by light microscopy, and the sum of cells in five microscopic fields was recorded for each membrane.

Substance	number cell-binding phages containing that sequence (U87R cells)	other results
CIQLANPPRLXG [M23]	2/100	
EHMALTYPFRPP (synthetic HIGC targeting peptide) [C12]	13/100	
GISLSSYLQSTQ (synthetic HIGC targeting peptide) [M32]	20/100	
GMSLSRQMLWSL (synthetic HIGC targeting peptide) [F2]	2/100	
HLFPQSNYGGHS (synthetic HIGC targeting peptide) [M24]	2/100	
HWAPSMYDYVSW (synthetic HIGC targeting peptide) [M5]	7/100	
IRSIRMRRILIL (synthetic BTIC targeting peptide) [C1]		number of phage subclones containing that sequence [1]: 2/50
KTSMRPLILIHI (synthetic BTIC targeting peptide) [3B]		distribution of fluorescent peptide signal in brain sections [2]: binds to cells that are both within and outside the main tumor mass; localization of peptide conjugate in human GBM tissue in vivo (summary) [2]: can localize in human GBM tissue in vivo; number of phage subclones containing that sequence [1]: 2/50
QTIRIIIRRSRT (synthetic BTIC targeting peptide) [10C]		number of phage subclones containing that sequence [1]: 6/50
RTVPDYTAHVRT (synthetic HIGC targeting peptide) [M43]	5/100	
SGHQLLLNKMPN (synthetic HIGC targeting peptide) [M19]	4/100	
SSRSMQRTLIIS (synthetic BTIC targeting peptide) [3F]		distribution of fluorescent peptide signal in brain sections [2]: most of the red signal appears outside of the main tumor mass; localization of peptide conjugate in human GBM tissue in vivo (summary) [2]: can localize in human GBM tissue in vivo; number of phage subclones containing that sequence [1]: 2/50
SVSVGMKPSPRP (synthetic HIGC targeting peptide) [A2]	21/100	
methyl-β-cyclodextran		cell migration of U87p75 glioma cells [3]: significantly inhibited cell migration
